Measurements reported in patent US5728685A, “Methods of treating inflammation using cell adhesion inhibitors” (Glycomed Incorporated, priority 1995, dated 1998).

Experiments:
[1] = system: E-SELECTIN (E Selectin-IgG chimera); assay: ELISA: inhibition of E-selectin binding to 2,3 sLex glycolipid
Excerpt: (§1) E-SELECTIN transfected COS cells produced by the above method may be used to assay for glucuronyl glycolipid ligands. Similarly, COS cells may be transfected with cDNAs that encode L-SELECTIN and/or P-SELECTIN. The production and characterization of L-SELECTIN IgG chimera constructs have been previously described by Watson S. R. et al., (1990) J. Cell Biol. 110:2221-2229. This chimera contains two complement binding domains, consistent with its natural expression. See Watson S. R. et al., (1991) J. Cell Biol. 115:235-243. P-SELECTIN chimera was constructed in a similar manner as described by Walz, G., et al (1990) Science 250, 1132-1135, and Aruffo, A. et al. (1991) Cell, 67, 35-44, respectively. The chimeras may be expressed in a suitable host cell, for example, 293 cells and purified. Protein A affinity chromatography is the preferred method of purification. E-SELECTIN and P-SELECTIN may be constructed with truncated complement binding domains to standardize the size of the chimeras and to facilitate their secretion. A variation of the above assay is to genetically engineer cells to express high levels of L-SELECTIN, E-SELECTIN, or P-SELECTIN on their surface, and to use the cells in lieu of purified selectin. Radiolabeled COS cells have been used in this type of assay, and can be transfected with cDNA that encodes for L-SELECTIN, E-SELECTIN or P-SELECTIN. […] The number of adherent cells reflects the capacity of the ligand to bind to the selectin.
(§2) Compounds 13a, 13b, 26 and 31 were tested for their capacity to bind to E, L and P selectin. The ELISA assay used consists of evaporating 2,3 sLex glycolipid, at 25 picomoles per well, onto microtiter wells, and then washing the excess off with water. The wells are blocked with 5% BSA at room temperature for an hour and then washed with PBS containing 1 mM Ca. While the plate is being blocked, biotin labelled goat F(ab')2 IgG (Fc specific) and streptavidinalkaline phosphatase diluted 1:1500 in 1% BSA-PBS (1 mM Ca) are combined with either the E, L or P Selectin-IgG chimera (L91-10) at 200 ng/mL and incubated at 37° C. for 15 minutes to allow a complex to form. This provides a soluble "multivalent" receptor. Compounds 13a and 13b were added at final concentrations ranging from 1.5 to 5.0 mM to the soluble receptor and allowed to react at 37° C. for 45 minutes. The solutions were then placed in the microtiter wells that had been washed after being blocked, and the plates incubated at 37° C. for 45 minutes to allow the soluble receptor to bind to the known natural ligand, 2,3 sLex glycolipid. The positive control was the signal produced by soluble "multivalent" receptor reacted with only the ligand evaporated to the microtiter well. This was considered "100% binding." The signal produced by receptor previously reacted with inhibitor is divided by the signal produced by the positive control, multiplied by 100, to calculate % receptor bound in the presence of the inhibitor. The reciprocal of this is % inhibition.

[2] = system: L-SELECTIN (L Selectin-IgG chimera); assay: ELISA: inhibition of L-selectin binding to 2,3 sLex glycolipid
Excerpt: as §1
as §2, with “Compounds 13a and 13b were added at final concentrations ranging from 1.5 to 5.0 mM to the soluble receptor and allowed to react at 37° C. for 45 minutes.” left out

[3] = system: adhesion of human neutrophils in the rabbit isolated heart; assay: Reperfusion Injury Assay: complement-induced neutrophil adhesion in isolated perfused heart; design: species or system human neutrophils; New Zealand White rabbit heart
Excerpt: Experiments were done to determine the effectiveness of compound 13b in decreasing adhesion of human neutrophils in the rabbit isolated […]. Addition of the human plasma to the rabbit isolated […] results in activation of the complement components found within the plasma, which in turn promotes an increase in the neutrophil accumulation. This model is used to determine the effect of lactose derivatives on inhibiting complement-induced neutrophil adhesion.
Hearts from New Zealand White rabbits were excised, mounted on a modified Langendorff apparatus and perfused with Krebs-Heinseleit buffer. Cardiac functional parameters were monitored upon a Grass Model 79D polygraph machine. 4% normal human plasma (NHP) was added to the recirculating buffer. Ten minutes after the addition of the plasma, 13b (0.1 mg/ml) was added to the perfusate. After 15 minutes of perfusion with the plasma, 51-chromium labelled human neutrophils (1×10^5 /ml) were added to the perfusate and allowed to recirculate for an additional 15 minutes. At the end of this time the hearts were washed with fresh buffer to remove non-specifically bound neutrophils, dried and counted in a well type gamma-counter. A concentration response curve was generated using concentrations of 0.001, 0.01 and 0.1 mg/ml. Six hearts were used for each of these concentrations.
Table 4 lists the results, expressed as the percent inhibition of neutrophil accumulation.

[4] = system: neutrophil-dependent injury to the lung endothelium and alveolar epithelium; assay: Acute Lung Injury Assay (acid aspiration injury); format: in vivo, New Zealand White rabbits; conditions: 10 mg/kg/hr IV; for Alveolar-arterial blood oxygen gradient: as compared to control animals
Excerpt: Experiments were done to determine the effectiveness of compounds 13b or 31 in their ability to reduce neutrophil-dependent injury to the lung endothelium and alveolar epithelium following acid aspiration injury.
Female New Zealand White rabbits (1 each/group, approx. 2 KG each) were anesthetized with halothane and ventilated with positive pressure ventilation supplemented with oxygen. Vascular catheters were placed in the carotid artery, into the internal jugular vein, and a tracheostomy was made for positive pressure ventilation. A low pH solution (HCl, pH 1.5) was installed in Ringer's lactate (osmolality=approximately 100) at a dose of 3 ml/kg into the trachea to stimulate a gastric aspiration induced lung injury. Compound 13b or 31 were injected (10 mg/kg/hr IV) 5 minutes prior to intratracheal instillation of the low pH solutions continued by hourly injections until the end of the experiment. Appropriate controls were used. An intravascular as well as an intra-alveolar radiolabelled protein tracer was injected to quantify lung endothelial and alveolar epithelial protein permeability. Arterial blood gases, systemic blood pressure and airways were monitored. At the end of 6 hours the lungs were removed and alveolar fluid was sampled from both lungs in order to measure the concentration of native protein as well as radiolabelled proteins in the airspaces to calculate lung vascular and lung epithelial permeability. Also, one lung was lavaged in order to count the neutrophils that are present in the airspaces of the lungs. Extravascular lung water measurements was done on the lung which was not lavaged. Histological samples were taken from selected portions of the lung.

[5] = system: P-SELECTIN (P Selectin-IgG chimera); assay: ELISA: inhibition of P-selectin binding to 2,3 sLex glycolipid
Excerpt: as §1, §2

L-Selectin = conditions: cited from earlier work
P-SELECTIN = conditions: cited from earlier work

Row | Compound | inhibition of binding of E selectin to 2,3 sLex glycolipid (in words) [1] | % INHIBITION of E-selectin binding to sLeX ([1]; 1.25 mM) [%] | % INHIBITION of E-selectin binding to sLeX ([1]; 2.5 mM) [%] | % INHIBITION of E-selectin binding to sLeX ([1]; 5.0 mM) [%] | inhibition of binding of L selectin to 2,3 sLex glycolipid (in words) [2] | % INHIBITION of L-selectin binding to sLeX ([2]; 1.25 mM) [%] | % INHIBITION of L-selectin binding to sLeX ([2]; 2.5 mM) [%] | % INHIBITION of L-selectin binding to sLeX ([2]; 2.0 mM) [%] | Alveolar-arterial blood oxygen gradient [4] | % INHIBITION of E-selectin binding to sLeX ([1]; 0.5 mM) [%] | % INHIBITION of E-selectin binding to sLeX ([1]; 1.0 mM) [%] | % INHIBITION of E-selectin binding to sLeX ([1]; 2.0 mM) [%] | % INHIBITION of E-selectin binding to sLeX ([1]; 4.0 mM) [%] | % INHIBITION of L-selectin binding to sLeX ([2]; 0.5 mM) [%] | % INHIBITION of L-selectin binding to sLeX ([2]; 1.0 mM) [%] | % INHIBITION of L-selectin binding to sLeX ([2]; 4.0 mM) [%] | further results
1 | C[C@@H]1O[C@@H](O[C@@H]2[C@@H](O)[C@H](OCC[Si](C)(C)C)O[C@H](CO)[C@H]2O[C@@H]2O[C@H](CO)[C@H](O)[C@H](OS(=O)(=O)O)[C@H]2O)[C@@H](O)[C@H](O)[C@@H]1O [Compound 13a, 2-(Trimethylsilyl) ethyl O-α-L-fucopyranosyl-(1→3)-O-[sodium-β-D-galactopyranosyl3-sulfate-(1→4)]-β-D-glucopyranoside] | inhibit binding of E selectin to 2,3 sLex glycolipid | 30 | 34 | 48 | inhibit binding of L selectin | 13 | 27 | – | – | – | – | – | – | – | – | – | % INHIBITION of L-selectin binding to sLeX ([2]; 5.0 mM): 47%
2 | C[C@@H]1O[C@@H](O[C@H]2[C@H](O[C@@H]3O[C@H](CO)[C@H](O)[C@H](OS(=O)(=O)O)[C@H]3O)[C@@H](CO)OC(O)[C@@H]2O)[C@@H](O)[C@H](O)[C@@H]1O (stereo partly drawn) [Compound 13b, O-α-L-fucopyranoayl-(1→3)-O-[sodium β-D-galactopyranosyl 3-sulfate-(1→4)]-D-glucopyranose] | inhibit binding of E selectin to 2,3 sLex glycolipid | 48.5 | 45.4 | 82.5 | inhibit binding of L selectin | 90 | 100 | 100 | decrease | – | – | – | – | – | – | – | degree of inhibition of neutrophil adhesion (in words) ([3]; 0.1 mg/ml): most significant degree of inhibition; inhibition of neutrophil adhesion (in words) ([3]; 0.001, 0.01 and 0.1 mg/ml): inhibited neutrophil adhesion in a concentration-dependent manner; inhibition at 100 µg/mL ([3]; Neutrophil, Table 4, 13b (0.1 mg/ml) added to the perfusate, read-out: % Neutrophil Inhibition (percent inhibition of neutrophil accumulation)): 35%
3 | CCCCCCCCO[C@@H]1O[C@H](CO)[C@@H](O[C@@H]2O[C@H](CO)[C@H](O)[C@H](OS(=O)(=O)O)[C@H]2O)[C@H](O[C@@H]2O[C@@H](C)[C@@H](O)[C@@H](O)[C@@H]2O)[C@H]1O [Compound 26] | inhibit binding of E selectin to 2,3 sLex glycolipid | – | – | – | – | – | – | 30 | – | 0 | 30 | 50 | 70 | 0 | 30 | 30 | % INHIBITION of P-selectin binding to sLeX ([5]; 0.5 mM): 0%; % INHIBITION of P-selectin binding to sLeX ([5]; 1.0 mM): 20%; % INHIBITION of P-selectin binding to sLeX ([5]; 2.0 mM): 40%; % INHIBITION of P-selectin binding to sLeX ([5]; 4.0 mM): 45%; inhibition of P selectin binding to 2,3 sLex glycolipid (in words) ([5]; as compared to L-selectin): better inhibitor of P selectin (as compared to L-selectin)
4 | CCCCCCCCO[C@@H]1O[C@H](CO)[C@@H](O[C@@H]2O[C@H](CO)[C@H](O)[C@H](OS(=O)(=O)O)[C@H]2O)[C@H](O)[C@H]1O [Compound 31, Octyl 4-O-(sodium β-D-galactopyranosyl 3-sulfate)-β-glucopyranoside] | inactive | – | – | – | inactive | – | – | 0 | decrease | 0 | 0 | 0 | 0 | 0 | 0 | 0 | neutrophil-dependent injury to the lung endothelium and alveolar epithelium ([4]; following acid aspiration injury): effectively reduced neutrophil-dependent injury
5 | CC(=O)NC1C(O)CC(OC2C(O)C(CO)OC(OC3C(CO)OC(O)C(NC(C)=O)C3OC3OC(C)C(O)C(O)C3O)C2O)(C(=O)O)OC1C(O)C(O)CO (stereo not drawn) [sialyl Lewis X, NeuNAc α2-3-Gal-β1-4(Fucα1-3)-GlcNAc] | – | – | – | – | – | – | – | – | – | – | – | – | – | – | – | – | binding to L-Selectin (L-Selectin): binds
6 | sulfatides | – | – | – | – | – | – | – | – | – | – | – | – | – | – | – | – | binding to P-Selectin (P-SELECTIN): bind
